Laboratory results: paper PMC6834594, “Structure and regulation of ZCCHC4 in m^6A-methylation of 28S rRNA” (Nature Communications, 2019)
Numbering of substitutions follows the chain as printed.

Tests used:
[1] = target: T1, ZCCHC4_24-464 (Homo sapiens, UniProt Q9H5U6, K55A/E56A/E57A/K167A/K168A); test: X-ray crystal structure, […] Å; format: binding; conditions: cofactor pocket of the MTase domain; no RNA
T1 construct: gene ZCCHC4; core fragment, residues 24-464, five surface mutations for crystallization; His6-SUMO tag cleaved by ULP1; E. coli BL21(DE3) RIL
T1 sequence (Q9H5U6 24-464 K55A/E56A/E57A/K167A/K168A): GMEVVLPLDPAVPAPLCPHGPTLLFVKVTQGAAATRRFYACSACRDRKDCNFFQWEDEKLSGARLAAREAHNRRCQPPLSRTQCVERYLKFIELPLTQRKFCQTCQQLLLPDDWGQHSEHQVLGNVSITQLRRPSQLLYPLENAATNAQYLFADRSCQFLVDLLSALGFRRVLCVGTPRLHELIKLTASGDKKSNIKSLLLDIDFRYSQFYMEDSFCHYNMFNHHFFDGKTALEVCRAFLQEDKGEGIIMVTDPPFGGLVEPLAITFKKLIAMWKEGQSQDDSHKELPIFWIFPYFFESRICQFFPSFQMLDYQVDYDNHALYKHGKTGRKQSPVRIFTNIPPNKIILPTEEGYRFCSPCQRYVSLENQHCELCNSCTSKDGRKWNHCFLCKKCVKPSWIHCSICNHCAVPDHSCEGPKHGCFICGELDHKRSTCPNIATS

[2] = target: T2, ZCCHC4_24-513 (Homo sapiens, UniProt Q9H5U6); test: isothermal titration calorimetry; format: binding
T2 construct: gene ZCCHC4; residues 24-513; His6-SUMO tag cleaved by ULP1; E. coli BL21(DE3) RIL; monomer in solution
T2 sequence (Q9H5U6 24-513): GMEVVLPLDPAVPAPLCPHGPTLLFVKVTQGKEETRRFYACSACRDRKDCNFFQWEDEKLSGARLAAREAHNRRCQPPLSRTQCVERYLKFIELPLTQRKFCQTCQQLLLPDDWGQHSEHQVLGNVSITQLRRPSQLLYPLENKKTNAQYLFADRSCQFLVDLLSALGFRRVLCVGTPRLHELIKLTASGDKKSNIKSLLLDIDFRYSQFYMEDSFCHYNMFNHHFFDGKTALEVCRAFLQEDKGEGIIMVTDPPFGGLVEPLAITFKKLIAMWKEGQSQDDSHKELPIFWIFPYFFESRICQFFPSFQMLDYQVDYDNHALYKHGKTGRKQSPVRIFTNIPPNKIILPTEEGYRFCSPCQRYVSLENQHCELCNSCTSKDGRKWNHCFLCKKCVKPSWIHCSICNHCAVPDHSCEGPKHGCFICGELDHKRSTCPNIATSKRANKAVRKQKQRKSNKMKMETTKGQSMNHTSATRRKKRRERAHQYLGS

[3] = target: T3, ZCCHC4_24-513 (Homo sapiens, UniProt Q9H5U6, H343A); test: isothermal titration calorimetry; format: binding
T3 construct: gene ZCCHC4; residues 24-513; His6-SUMO tag cleaved by ULP1; E. coli BL21(DE3) RIL; monomer in solution
T3 sequence (Q9H5U6 24-513 H343A): T2 sequence (Q9H5U6 24-513) with H320A

[4] = target: T4, ZCCHC4 24-464 WT (core) (human, UniProt Q9H5U6 24-464); test: EMSA; EMSA: 20 mM Tris-HCl pH 7.5, 100 mM NaCl, 5% glycerol, 1 mM DTT, 4 C, 1 h; 0.3 uM RNA with 0-1.2 uM protein unless noted; 6% TBE native gel; conditions: protein: recombinant; tags: His6-SUMO removed by ULP1; label: none (SYBR Gold stain); stem-loop with tail
T4 sequence: T1 sequence (Q9H5U6 24-464 K55A/E56A/E57A/K167A/K168A) with A32K, A33E, A34E, A144K, A145K

With `Nc1ncnc2c1ncn2[C@@H]1O[C@H](CSCC[C@H](N)C(=O)O)[C@@H](O)[C@H]1O` [SAH] the “X-ray crystal structure, 3.1 Å” value [1] was “in complex with S-adenosyl-L-homocysteine (SAH)”.

With `C[S+](CC[C@H](N)C(=O)O)C[C@H]1O[C@@H](n2cnc3c(N)ncnc32)[C@H](O)[C@@H]1O` (stereo partly shown) [SAM] the Kd [2] was 6.7 µM and the Kd [3] was 1.6 µM.

CGGUACACCUGUCAAACGGUAACGCAGGUG (structured_RNA) [30-mer 28S rRNA]: binds [4].
